Experimental data reported in patent US20230381142A1, “ANTILEISHMANIAL COMPOUNDS, COMPOSITIONS AND USE THEREOF” (TRUSTEES OF BOSTON UNIVERSITY, priority 2022, published 2023).
In brackets after ≈: the same amount, converted by molar mass.

Tests used:
[1] = test system: THP-1 cells; test: Host THP-1 cell cytotoxicity in the CDIPD high content screen; format: cell-based, human; conditions: Homo sapiens, THP-1; 10 μM; footnote b; read-out: THP-1 host cell % growth inhibition at 10 μM
Procedure: (§1) Assay Conditions B: THP-1 cells (human acute monocytic leukemia cell line—ATCC TIB202) were grown in RPMI supplemented with 10% Fetal Bovine Serum (FBS) and 50 μM 2-mercaptoethanol at 37° C. in 5% CO2. THP-1 were seeded in microwell plates at 5×10^5 cells/mL density and treated with 0.1 μM phorbol myristate acetate (PMA, Sigma) at 37° C. for 48 h for differentiation into adherent, non-dividing macrophages. After activation by PMA, cells were washed and incubated with complete RPMI medium containing stationary phase Leishmania promastigotes (L. major: strain LV39; L. donovani, strain 1S/Cl2D) at a 1:15 parasite-cell ratio. Compounds were added and incubated at 37° C. for 72 h. Cells were then washed with phosphate-buffered saline (PBS), fixed for 30 minutes with 4% formaldehyde, rinsed again with PBS, stained for 2 h with 4′,6′-diamidino-2-phenylindole (DAPI 300 nM) and finally washed with PBS. In a collaborative effort to identify new antileishmanial chemotypes with minimal host cell cytotoxicity, compounds from the Boston University Center for Molecular Discovery (BUCMD) screening collection were assessed in a phenotypic, high content primary screen at the University of California's Center for Discovery and Innovation in Parasitic Diseases (CDIPD) for the ability to inhibit growth of L. donovani intracellular amastigotes infecting THP-1 cells. […] Dose-response testing in L. donovani (both intracellular amastigotes and promastigotes) confirmed concentration-dependent growth inhibition of both morphologies of the parasite at low micromolar EC50 values for both compounds (Table 1).

[2] = test system: L. donovani intracellular amastigotes infecting THP-1 cells; test: High content intracellular amastigote assay in THP-1 cells (Assay Conditions B; CDIPD screen); format: cell-based, Leishmania donovani; conditions: for L. donovani amastigotes % GI at 10 μM (THP-1 cells): footnote b
Procedure: as §1

[3] = test system: L. donovani intracellular amastigotes in B10R cells; test: UCSD L. donovani infection assay (Assay Conditions D); format: cell-based; conditions: Leishmania donovani; for EC50: average of two biological replicates, read-out: L. donovani EC50 (UCSD assay)
Procedure, shortened: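 Compounds, either single-point at 10 μM or 10-point 2-fold series (3 technical, 2 biological replicates), were incubated 72 h at 37° C. with B10R host cells co-seeded with day-7 stationary L. donovani promastigotes (20:1). DAPI-stained nuclei imaging yielded intracellular parasite EC50 and host-cell CC50.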

[4] = target: human serum albumin (Homo sapiens, UniProt P02768); test: Human serum albumin (HSA) binding, chromatographic; format: in vitro ADME
Procedure: The percentage of compound bound to human serum albumin was measured using a chromatographic method as described. Briefly, each compound was assayed on an immobilized HSA column and gradient retention times measured, with chromatographic peak detection by UV. Each retention time was then converted to a % HSA bound value using a calibration set of compounds with a known % HSA binding.

[5] = test system: L. donovani intracellular amastigotes infecting THP-1 macrophages; test: GSK intramacrophage L. donovani assay (LD AMMAC, inMac; Assay Conditions C); format: cell-based; conditions: Leishmania donovani, THP-1
Procedure, shortened: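 EC50 values come from counting amastigotes per infected THP-1 macrophage (AMMAC). Parallel read-outs give percentage of infected cells per well (INFCELL) and a macrophage-number toxicity EC50 (MAC).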

[6] = Kinetic aqueous solubility by CAD; format: physicochemical; conditions: aqueous medium, kinetic from dmso stock, high-throughput CAD
Procedure: Solubility of compounds using ChemiLuminescent Nitrogen Detection (CLND) was measured as described. Solubility of compounds using Charged Aerosol Detection (CAD) was measured as described. Solubility of solid compounds in Fasted Simulated Intestinal Fluid (FaSSIF) was measured as described.

[7] = UCSD infection assay, host cell cytotoxicity (CC50); format: cell-based; conditions: host macrophages infected with L. donovani; cytotoxicity against host macrophages
[8] = Property forecast index (PFI = ChromLogD7.4 + aromatic rings); format: physicochemical

Chain of human serum albumin (P02768 25-609): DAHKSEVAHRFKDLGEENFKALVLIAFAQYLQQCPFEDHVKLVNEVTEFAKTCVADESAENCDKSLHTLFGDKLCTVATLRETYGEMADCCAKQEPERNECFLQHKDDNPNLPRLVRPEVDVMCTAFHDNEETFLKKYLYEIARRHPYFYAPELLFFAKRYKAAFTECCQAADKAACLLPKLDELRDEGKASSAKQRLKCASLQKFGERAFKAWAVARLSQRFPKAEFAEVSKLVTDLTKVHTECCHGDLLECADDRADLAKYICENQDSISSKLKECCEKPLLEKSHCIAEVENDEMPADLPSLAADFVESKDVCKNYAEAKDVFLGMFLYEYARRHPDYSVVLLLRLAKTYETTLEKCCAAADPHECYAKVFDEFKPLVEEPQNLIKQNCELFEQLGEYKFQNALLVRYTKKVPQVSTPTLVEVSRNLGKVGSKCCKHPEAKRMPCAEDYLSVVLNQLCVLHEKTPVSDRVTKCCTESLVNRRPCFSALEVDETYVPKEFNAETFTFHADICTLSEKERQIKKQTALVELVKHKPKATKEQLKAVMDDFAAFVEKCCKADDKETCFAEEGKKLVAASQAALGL

SMILES	inhibition at 10 µM [1]	L. donovani amastigotes % GI at 10 μM (THP-1 cells) [2]	inhibition at 10 µM ([2]; Leishmania donovani, THP-1, read-out: inhibition at 10 μM (initial screening))	IC50 [3]	EC50 [3]	HSA Binding [4]	IC50 [5]	solubility [6]	CC50 at 72 h [7]	PFI [8]
COc1ccc(N2C(=O)c3[nH]nc(-c4ccccc4)c3C2c2ccc(F)cc2)cc1 (centres unmarked) [CMLD007235]	30%	0.0%								
COc1ccc(N2C(=O)c3[nH]nc(C)c3C2c2ccc(C)cc2)cc1 (centres unmarked) [CMLD007247]	< 10%	0.0%								
COc1ccc(N2C(=O)c3[nH]nc(-c4ccccc4)c3C2c2ccc(C)cc2)cc1 (centres unmarked) [CMLD007262]	< 10%	0.0%								
COc1ccc(N2C(=O)c3[nH]nc(C(C)C)c3C2c2ccccc2)cc1 (centres unmarked) [CMLD007286]	< 10%	0.0%								
CC(C)Cc1n[nH]c2c1C(c1ccccc1)N(c1ccccc1)C2=O (centres unmarked) [CMLD007421]	< 10%	0.0%								
Cc1ccc(C2c3c(CC(C)C)n[nH]c3C(=O)N2c2ccccc2)cc1 (centres unmarked) [CMLD007424]	35%	81.0%								
CC(C)Cc1n[nH]c2c1C(c1ccc(F)cc1)N(c1ccccc1)C2=O (centres unmarked) [CMLD007425]	13%	15.0%								
COc1ccc(N2C(=O)c3[nH]nc(CC(C)C)c3C2c2ccc(C)cc2)cc1 (centres unmarked) [CMLD007430]	< 10%	0.0%	0%							
CC(C)Cc1n[nH]c2c1C(c1ccccc1Cl)N(c1ccc3c(c1)OCO3)C2=O (centres unmarked) [Compound 67, 5-(benzo[d][1,3]dioxol-5-yl)-4-(2-chlorophenyl)-3-isobutyl-4,5-dihydropyrrolo[3,4-c]pyrazol-6(1H)-one]				200 nM	160 nM	98.0%	500 nM	35 µM (≈ 14.3 µg/mL)	12200 nM	8.7
Cc1cc(F)ccc1C1c2c(CC(C)C)n[nH]c2C(=O)N1c1ccc2c(c1)OCO2 (centres unmarked) [Compound 70, 5-(benzo[d][1,3]dioxol-5-yl)-4-(4-fluoro-2-methylphenyl)-3-isobutyl-4,5-dihydropyrrolo[3,4-c]pyrazol-6(1H)-one]				100 nM	100 nM	97.6%	> 100000 nM	46 µM (≈ 18.7 µg/mL)	12100 nM	8.6
COc1ccc(N2C(=O)c3[nH]nc(CC(C)C)c3C2c2ccccc2OC)cc1F (centres unmarked) [Compound 72, 5-(3-fluoro-4-methoxyphenyl)-3-isobutyl-4-(2-methoxyphenyl)-4,5-dihydropyrrolo[3,4-c]pyrazol-6(1H)-one]				400 nM	380 nM	95.9%	1300 nM	43 µM (≈ 17.6 µg/mL)	260 nM	8.5
COc1ccc(N2C(=O)c3[nH]nc(CC(C)C)c3C2c2ccc(F)cc2C)cc1F (centres unmarked) [Compound 73, 4-(4-fluoro-2-methylphenyl)-5-(3-fluoro-4-methoxyphenyl)-3-isobutyl-4,5-dihydropyrrolo[3,4-c]pyrazol-6(1H)-one]				200 nM	160 nM	96.3%	3200 nM	35 µM (≈ 14.4 µg/mL)	10900 nM	8.8
CC(C)Cc1n[nH]c2c1C(c1ccccc1Br)N(c1ccc(Br)cc1)C2=O (centres unmarked) [Compound 74, 4-(2-bromophenyl)-5-(4-bromophenyl)-3-isobutyl-4,5-dihydropyrrolo[3,4-c]pyrazol-6(1H)-one]				400 nM	390 nM	98.0%	10000 nM	< 1 µM	4980 nM	10.4
COc1ccccc1C1c2c(CC(C)C)n[nH]c2C(=O)N1c1ccc(Br)cc1 (centres unmarked) [Compound 75, 5-(4-bromophenyl)-3-isobutyl-4-(2-methoxyphenyl)-4,5-dihydropyrrolo[3,4-c]pyrazol-6(1H)-one]				200 nM	240 nM	97.5%	500 nM	< 1 µM	1140 nM	9.6
